Measurements: patent US7842316B2, “Cosmetic compositions having extracts of Amomum melegueta and methods of treating skin” (Avon Products, Inc., priority 2007, dated 2010)

Molecular target: T1, COX-2 (Ovis aries, UniProt P79208)
T1 sequence (P79208 17-603): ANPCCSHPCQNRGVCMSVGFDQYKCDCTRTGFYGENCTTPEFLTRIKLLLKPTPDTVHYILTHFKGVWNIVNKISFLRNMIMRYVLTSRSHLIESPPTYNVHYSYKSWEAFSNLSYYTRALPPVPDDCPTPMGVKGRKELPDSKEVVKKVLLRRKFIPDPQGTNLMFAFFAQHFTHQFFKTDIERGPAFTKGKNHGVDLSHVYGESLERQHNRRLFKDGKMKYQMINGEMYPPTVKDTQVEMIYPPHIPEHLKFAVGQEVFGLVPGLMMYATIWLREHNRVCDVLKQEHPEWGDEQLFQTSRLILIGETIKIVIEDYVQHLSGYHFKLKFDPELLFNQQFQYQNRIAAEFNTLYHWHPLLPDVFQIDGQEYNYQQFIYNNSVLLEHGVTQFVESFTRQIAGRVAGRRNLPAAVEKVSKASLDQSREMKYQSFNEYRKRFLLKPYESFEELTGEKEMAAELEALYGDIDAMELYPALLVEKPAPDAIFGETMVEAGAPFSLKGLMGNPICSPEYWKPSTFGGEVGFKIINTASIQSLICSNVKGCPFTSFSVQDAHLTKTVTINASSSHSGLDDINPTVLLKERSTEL
Test: colorimetric COX (ovine) inhibitor screening assay
Assay type: biochemical
Details: Vioxx used as positive control; concentration not given

CS(=O)(=O)c1ccc(C2=C(c3ccccc3)C(=O)OC2)cc1 [Vioxx]
level of inhibition (COX-2 inhibitory activity), positive control: 90%
